Assay results published in patent US12135333B2, “Detection kit for detecting immunosuppressors in whole blood by high performance liquid chromatography-tandem mass spectrometry and detection method thereof” (Hangzhou Calibra Diagnostics Co., Ltd., priority 2021, dated 2024).

What was measured:
[1] = 14 d stability at 37° C. of isotope internal standards in the internal standard solution with different antioxidants (LC-MS/MS peak area); assay type: physicochemical
Text: (§1) Supernatant was taken and detected by high performance liquid chromatography-tandem mass spectrometry; and a spectrogram of the standard curve at the lowest point was shown in FIG. 1. Specific analysis conditions were as follows: gradient elution was used to an instrumental method; and the tandem mass spectrum: electrospray ionization (ESI) ion source and positive ion Multiple Reaction Monitoring (MRM) Mode were taken.
(§2) Antioxidants included 2,6-di-tert-butyl-p-cresol, vitamin E, vitamin C, β-carotene, and sodium metabisulfite.

[2] = 14 d stability at 37° C. of immunosuppressors in the system suitability solution with different antioxidants (LC-MS/MS peak area); assay type: physicochemical; conditions: for Change of content (in words): not adding an antioxidant, system suitability solution and internal standard solution
Text: as §1, §2

[3] = 14 d stability at 37° C. of immunosuppressors in sterile bovine blood with vitamin E at different concentrations; assay type: physicochemical; conditions: for Decline of concentration (in words): vitamin E 1.0 mg/mL and 1.5 mg/mL
[4] = in vitro experiments; cited from earlier work
[5] = 14 d at 37° C., antioxidant 2,6-di-tert-butyl-p-cresol
[6] = 14 d at 37° C., antioxidant P-carotene
[7] = 14 d at 37° C., antioxidant Sodium metabisulfite
[8] = 14 d at 37° C., antioxidant Vitamin C
[9] = 14 d at 37° C., antioxidant Vitamin E
[10] = 14 d at 37° C., free of adding antioxidant
[11] = 14 d at 37° C., antioxidant β-carotene
[12] = 14 d at 37° C., vitamin E 0.5 mg/mL
[13] = 14 d at 37° C., vitamin E 1.0 mg/mL
[14] = 14 d at 37° C., vitamin E 1.5 mg/mL

| SMILES | Peak area of internal standard solution [1, 5] | Peak area of internal standard solution [1, 6] | Peak area of internal standard solution [1, 7] | Peak area of internal standard solution [1, 8] | Peak area of internal standard solution [1, 9] | Peak area of internal standard solution [1, 10] | Peak area of internal standard solution ([1]; Initial values) | Peak area of system suitability solution [2, 5] | Peak area of system suitability solution [2, 7] | Peak area of system suitability solution [2, 8] | Peak area of system suitability solution [2, 9] | Peak area of system suitability solution [2, 11] | Peak area of system suitability solution [2, 10] | Change of content (in words) ([2]; 14 d at 37° C.) | Peak area of system suitability solution ([2]; Initial values) | Sample detection concentration [3, 12] [ng/mL] | Sample detection concentration [3, 13] [ng/mL] | Decline of concentration (in words) ([3]; 14 d at 37° C.) | Sample detection concentration [3, 14] [ng/mL] | Sample detection concentration ([3]; Initial values) [ng/mL] | further results |
| --- | --- | --- | --- | --- | --- | --- | --- | --- | --- | --- | --- | --- | --- | --- | --- | --- | --- | --- | --- | --- | --- |
| [2H][13C]([2H])=CC[C@@H]1/C=C(\C)C[C@H](C)C[C@H](OC)[C@H]2O[C@@](O)(C(=O)C(=O)N3CCCC[C@H]3C(=O)O[C@H](/C(C)=C/[C@@H]3CC[C@@H](O)[C@H](OC)C3)[C@H](C)[C@@H](O)C([2H])([2H])C1=O)[C@H](C)C[C@@H]2OC [Tacrolimus-13C-d4, tacrolimus-13C-d4] | 28579 | 5494 | 5764 | 25618 | 53397 | 6069 | 60178 | – | – | – | – | – | – | – | – | – | – | – | – | – | – |
| [2H]C([2H])([2H])O[C@H]1C[C@@H]2CC[C@@H](C)[C@@](O)(O2)C(=O)C(=O)N2CCCC[C@H]2C(=O)O[C@H]([C@H](C)C[C@@H]2CC[C@@H](O)[C@H](OC)C2)CC(=O)[C@H](C)/C=C(\C)[C@@H](O)[C@@H](OC)C(=O)[C@H](C)C[C@H](C)/C=C/C=C/C=C/1C [Sirolimus-d3, sirolimus-d3] | 7033 | 3308 | 5301 | 6664 | 62889 | 3768 | 71424 | – | – | – | – | – | – | – | – | – | – | – | – | – | – |
| CO[C@H]1C[C@@H]2CC[C@@H](C)[C@@](O)(O2)C(=O)C(=O)N2CCCC[C@H]2C(=O)O[C@H]([C@H](C)C[C@@H]2CC[C@@H](OCCO)[C@H](OC)C2)CC(=O)[C@H](C)/C=C(\C)[C@@H](O)[C@@H](OC)C(=O)[C@H](C)C[C@H](C)/C=C/C=C/C=C/1C [Everolimus] | – | – | – | – | – | – | – | 3533 | 6256 | 11782 | 98290 | 3599 | 2401 | almost dropped dramatically | 111146 | 62.1 | 75.3 | no obvious decline | 75.7 | 80.1 | Decrease of concentration [3, 12]: 22.5% |
| C=CC[C@@H]1/C=C(\C)C[C@H](C)C[C@H](OC)[C@H]2O[C@@](O)(C(=O)C(=O)N3CCCC[C@H]3C(=O)O[C@H](/C(C)=C/[C@@H]3CC[C@@H](O)[C@H](OC)C3)[C@H](C)[C@@H](O)CC1=O)[C@H](C)C[C@@H]2OC [Tacrolimus] | – | – | – | – | – | – | – | 27771 | 8044 | 30470 | 69879 | 8659 | 7408 | almost dropped dramatically | 74430 | 73.3 | 80.1 | no obvious decline | 79.0 | 79.7 | Immunological competence relative to cyclosporine A [4]: 50-100 times |
